In US20200339625A1, “NOVEL RADIOMETAL-BINDING COMPOUNDS FOR DIAGNOSIS OR TREATMENT OF PROSTATE SPECIFIC MEMBRANE ANTIGEN-EXPRESSING CANCER” (PROVINCIAL HEALTH SERVICES AUTHORITY, priority 2017, published 2020):

Assays:
[1] = test system: mice bearing LNCaP tumor xenografts; test: PET/CT imaging of 68Ga-labeled compounds; assay type: in vivo; details: for blood retention (qualitative): PET/CT images at 1 h and 3 h post-injection, comparison within the figure
Method: 2.17 PET/CT Imaging and Biodistribution
(§1) Imaging and biodistribution experiments were performed using NODSCID 1L2RyKO male mice. Mice were anesthetized by inhalation with 2% isoflurane in oxygen, and implanted subcutaneously with 1×10^7 LNCaP cells behind left shoulder. Mice were imaged or used in biodistribution studies when the tumor grew up to reach 5-8 mm in diameter during 5-6 weeks.
PET imaging experiments were conducted using Siemens Inveon micro PET/CT scanner. Each tumor bearing mouse was injected 6-8 MBq of 68Ga-labeled tracer through the tail vein under anesthesia (2% isoflurane in oxygen). The mice were allowed to recover and roam freely in their cage. After 50 min, the mice were sedated again with 2% isoflurane in oxygen inhalation and positioned in the scanner. A 10-min CT scan was conducted first for localization and attenuation correction after segmentation for reconstructing the PET images. Then, a 10-min static PET imaging was performed to determined uptake in tumor and other organs. The mice were kept warm by a heating pad during acquisition. For imaging studies acquired at 3 h post-injection (p.i.), the mice were placed in the micro PET/CT scanner at 170 min p.i. Then, the CT acquisitions were conducted as described above, a 15-min static PET imaging was performed to determined uptake in tumor and other organs.

[2] = test system: mice bearing PSMA-expressing LNCAP cancer xenografts; test: Biodistribution of 68Ga-labeled compounds; assay type: in vivo
Method: as §1
For biodistribution studies, the mice were injected with the radiotracer as described above. At predetermined time points (1 or 3 h), the mice was anesthetized with 2% isoflurane inhalation, and euthanized by CO2 inhalation. Blood was withdrawn immediately from the heart, and the organs/tissues of interest were collected. The collected organs/tissues were weighed and counted using an automatic gamma counter. The uptake in each organ/tissue was normalized to the injected dose using a standard curve, and expressed as the percentage of the injected dose per gram of tissue (% ID/g).

## O=C([O-])CN1CCN(CC(=O)[O-])CCN(CC(=O)NCCCC[C@H](NC(=O)CNC(=O)CCCc2ccc([N+](=O)[O-])cc2)C(=O)NC[C@H]2CC[C@H](C(=O)N[C@@H](Cc3ccc4ccccc4c3)C(=O)NCCCC[C@H](NC(=O)N[C@@H](CCC(=O)O)C(=O)O)C(=O)O)CC2)CCN(CC(=O)[O-])CC1.[68Ga+3] [^68Ga-HTK03089]
[1]; PET/CT images
  change of tumor uptake from 1 h to 3 h post-injection: increases over time
[1]
  blood retention (qualitative): significantly higher blood retention
[2]; 1 h post-injection
  Adrenal glands uptake: 4.57 ± 1.06 % ID/g
  Blood uptake: 6.69 ± 0.27 % ID/g
  Bone uptake: 0.41 ± 0.08 % ID/g
  Brain uptake: 0.09 ± 0.01 % ID/g
  Fat uptake: 2.14 ± 0.29 % ID/g
  Heart uptake: 1.73 ± 0.14 % ID/g
  Intestine uptake: 0.76 ± 0.05 % ID/g
  Kidneys uptake: 91.1 ± 7.42 % ID/g
  Lacrimal uptake: 0.05 ± 0.03 % ID/g
  Liver uptake: 1.33 ± 0.27 % ID/g
  Lungs uptake: 4.68 ± 0.35 % ID/g
  Muscle uptake: 0.79 ± 0.06 % ID/g
  Pancreas uptake: 1.00 ± 0.07 % ID/g
  Salivary uptake: 3.95 ± 0.32 % ID/g
  Seminal uptake: 0.66 ± 0.24 % ID/g
  Spleen uptake: 8.56 ± 3.07 % ID/g
  Stomach uptake: 0.34 ± 0.07 % ID/g
  Tail uptake: 2.54 ± 0.33 % ID/g
  Testes uptake: 1.35 ± 0.14 % ID/g
  Thyroid uptake: 2.32 ± 0.10 % ID/g
  Tumor uptake: 21.7 ± 2.48 % ID/g
  Tumor:Blood ratio: 3.25 ± 0.43
  Tumor:Muscle ratio: 27.4 ± 4.01
  Urine uptake: 47.9 ± 46.6 % ID/g
[2]; 3 h post-injection
  Adrenal glands uptake: 2.76 ± 0.44 % ID/g
  Blood uptake: 2.52 ± 0.69 % ID/g
  Bone uptake: 0.15 ± 0.05 % ID/g
  Brain uptake: 0.04 ± 0.02 % ID/g
  Fat uptake: 1.28 ± 0.25 % ID/g
  Heart uptake: 0.68 ± 0.16 % ID/g
  Intestine uptake: 0.45 ± 0.10 % ID/g
  Kidneys uptake: 96.4 ± 21.9 % ID/g
  Lacrimal uptake: 0.00 ± 0.00 % ID/g
  Liver uptake: 0.73 ± 0.41 % ID/g
  Lungs uptake: 2.14 ± 0.42 % ID/g
  Muscle uptake: 0.29 ± 0.04 % ID/g
  Pancreas uptake: 0.47 ± 0.07 % ID/g
  Salivary uptake: 1.45 ± 0.33 % ID/g
  Seminal uptake: 0.24 ± 0.05 % ID/g
  Spleen uptake: 2.56 ± 0.89 % ID/g
  Stomach uptake: 0.19 ± 0.04 % ID/g
  Tail uptake: 1.01 ± 0.23 % ID/g
  Testes uptake: 0.73 ± 0.16 % ID/g
  Thyroid uptake: 0.98 ± 0.25 % ID/g
  Tumor uptake: 31.2 ± 2.11 % ID/g
  Tumor:Blood ratio: 13.1 ± 3.76
  Tumor:Muscle ratio: 108 ± 13.6
  Urine uptake: 88.5 ± 45.6 % ID/g

## COc1ccc(CCCC(=O)NCC(=O)N[C@@H](CCCCNC(=O)CN2CCN(CC(=O)[O-])CCN(CC(=O)[O-])CCN(CC(=O)[O-])CC2)C(=O)NC[C@H]2CC[C@H](C(=O)N[C@@H](Cc3ccc4ccccc4c3)C(=O)NCCCC[C@H](NC(=O)N[C@@H](CCC(=O)O)C(=O)O)C(=O)O)CC2)cc1.[68Ga+3] [^68Ga-HTK03086]
[1]; PET/CT images
  change of tumor uptake from 1 h to 3 h post-injection: increases over time
  excretion pathway: excreted mainly by the renal pathway
[1]
  blood retention (qualitative): significantly higher blood retention
[2]; 1 h post-injection
  Adrenal glands uptake: 3.28 ± 0.54 % ID/g
  Blood uptake: 12.1 ± 0.60 % ID/g
  Bone uptake: 0.72 ± 0.19 % ID/g
  Brain uptake: 0.15 ± 0.01 % ID/g
  Fat uptake: 1.37 ± 0.17 % ID/g
  Heart uptake: 2.76 ± 0.25 % ID/g
  Intestine uptake: 0.91 ± 0.07 % ID/g
  Kidneys uptake: 54.7 ± 4.84 % ID/g
  Lacrimal uptake: 0.24 ± 0.05 % ID/g
  Liver uptake: 1.77 ± 0.27 % ID/g
  Lungs uptake: 5.43 ± 0.65 % ID/g
  Muscle uptake: 0.94 ± 0.02 % ID/g
  Pancreas uptake: 1.16 ± 0.11 % ID/g
  Salivary uptake: 2.51 ± 0.18 % ID/g
  Seminal uptake: 0.71 ± 0.10 % ID/g
  Spleen uptake: 2.18 ± 0.51 % ID/g
  Stomach uptake: 0.34 ± 0.04 % ID/g
  Tail uptake: 3.39 ± 0.59 % ID/g
  Testes uptake: 1.54 ± 0.18 % ID/g
  Thyroid uptake: 2.24 ± 0.15 % ID/g
  Tumor uptake: 17.8 ± 2.89 % ID/g
  Tumor:Blood ratio: 1.47 ± 0.28
  Tumor:Muscle ratio: 18.8 ± 2.968
  Tumor:kidney ratio: 0.32 ± 0.04
  Urine uptake: 82.9 ± 62.5 % ID/g
[2]; 3 h post-injection
  Adrenal glands uptake: 1.80 ± 0.39 % ID/g
  Blood uptake: 6.60 ± 0.84 % ID/g
  Bone uptake: 0.33 ± 0.16 % ID/g
  Brain uptake: 0.09 ± 0.02 % ID/g
  Fat uptake: 0.95 ± 0.12 % ID/g
  Heart uptake: 1.53 ± 0.21 % ID/g
  Intestine uptake: 0.71 ± 0.07 % ID/g
  Kidneys uptake: 48.5 ± 10.7 % ID/g
  Lacrimal uptake: 0.07 ± 0.04 % ID/g
  Liver uptake: 1.40 ± 0.35 % ID/g
  Lungs uptake: 3.49 ± 0.64 % ID/g
  Muscle uptake: 0.57 ± 0.09 % ID/g
  Pancreas uptake: 0.70 ± 0.11 % ID/g
  Salivary uptake: 1.39 ± 0.13 % ID/g
  Seminal uptake: 0.47 ± 0.09 % ID/g
  Spleen uptake: 1.58 ± 0.37 % ID/g
  Stomach uptake: 0.27 ± 0.08 % ID/g
  Tail uptake: 1.50 ± 0.17 % ID/g
  Testes uptake: 1.30 ± 0.30 % ID/g
  Thyroid uptake: 1.39 ± 0.16 % ID/g
  Tumor uptake: 28.2 ± 5.44 % ID/g
  Tumor:Blood ratio: 4.33 ± 1.06
  Tumor:Muscle ratio: 50.5 ± 13.5
  Tumor:kidney ratio: 0.59 ± 0.10
  Urine uptake: 1.30 ± 47.9 % ID/g
